The source of these data is US20020015941A1, “Method for treatment of neurodegenerative diseases” (The General Hospital Corporation, priority 2000, published 2002).

For test [1], the system named is Aβ42/Aβtotal in CHO cells stably overexpressing human APP. Put plainly: Aβ sandwich ELISA, CHO cells stably overexpressing human APP. The class given is cell-based, Chinese hamster. In general terms: An ELISA detects its analyte on a solid surface through an enzyme-linked reagent.
Test [2] relates to Aβ42/Aβtotal in HEK293 cells stably overexpressing human APP. It counts as cell-based.

Read-outs that look alike come from different tables or passages of the source.

Turning to `COc1ccc(CCCOC(Cn2ccnc2)c2ccc(OC)cc2)cc1` (stereo not shown) [SKF96365], the “ratio of Aβ42/Aβtotal (Aβ42 generation)” value is “specifically elevated” in test [1] (CHO-APP, SKF96365 100 μM, nifedipine 1 μM, ω-conotoxin GVIA 1 μM, 12 hour treatment) and “specifically elevated” in test [2] (HEK293-APP, SKF96365 100 μM, nifedipine 1 μM, ω-conotoxin GVIA 1 μM, 12 hour treatment).

On to ω-conotoxin GVIA, for which the “ratio of Aβ42/Aβtotal (Aβ42 generation)” value in test [1] and in test [2] was “no significant effect” in each case.
